Measurements: US20240228555A9, “ANTIMICROBIAL PEPTIDOMIMETICS” (Basilea Pharmaceutica International AG, Allschwil, priority 2020, published 2024)
Where a SMILES comes first, the peptide text is derived from it.

How the values were obtained:
[1] = test system: human red blood cells (hRBC); type: cell-based; conditions: red cells of human, 1 h, 0.2 g/L
How it was run: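 Percent lysis was derived from supernatant absorbance at 540 nm relative to full lysis by 2.5% Triton X-100 (PBS defines 0%). Compounds, 200 μg/mL, were exposed for 1 h at 37° C to a 20% (v/v) suspension of washed human red cells.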

[2] = test system: Klebsiella pneumoniae SSI3010; conditions: SSI3010
How it was run: (§1)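 Peptides were made up as 1 mg/mL stocks in sterile water. Colonies in 0.85% saline were set to 0.5 McFarland, then diluted in cation-adjusted Mueller-Hinton II broth to about 5×10^5 CFU/mL. Inoculum was combined with two-fold serial peptide dilutions in water containing 0.002% (final) polysorbate 80.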

[3] = test system: Escherichia coli MCR-1 Af 45; conditions: Mueller-Hinton broth II, no visible growth after 18-20 hours at 35° C.
How it was run: as §1

[4] = test system: Escherichia coli ATCC 25922; conditions: ATCC 25922
How it was run: as §1

Row | Compound | Hemolysis at 0.2 g/L [1] [%] | Klebsiella pneumoniae SSI3010 MIC [2] [mg/L] | Escherichia coli MCR-1 Af 45 MIC [3] [mg/L] | Escherichia coli ATCC 25922 MIC [4] [mg/L]
1 | CC[C@H](C)[C@H](NC(=O)[C@@H](NC(=O)[C@@H]1C[C@@H](N)CN1C(=O)[C@@H](N)C(C)C)[C@@H](C)CC)C(=O)N[C@@H](Cc1ccc(O)cc1)C(=O)N[C@@H]1C(=O)N[C@@H](CC(N)=O)C(=O)N[C@@H](CCCNC(=N)N)C(=O)N[C@@H](CCN)C(=O)N[C@@H]([C@@H](C)O)C(=O)N[C@H](CCN)C(=O)N[C@@H](CCCNC(N)=O)C(=O)N[C@H](C(=O)N[C@@H](CCN)C(=O)N[C@@H](CCCNC(=N)N)C(=O)N[C@@H](Cc2ccc(O)cc2)C(=O)O)CSSC1(C)C [Example 91, Val-Pro((4R)NH2)-Ile-Ile-Tyr-Pen-Asn-Arg-Dab-Thr-^DDab-Cit-Cys-Dab-Arg-Tyr] (HELM PEPTIDE1{V.[N[C@@H]1C[C@@H](C(=O)[*:2])N([*:1])C1].I.I.Y.[Pen].N.R.[Dab].T.[NCC[C@@H](N[*:1])C(=O)[*:2]].[Cit].C.[Dab].R.Y}$PEPTIDE1,PEPTIDE1,6:R3-13:R3$$$V2.0) | <1 | 0.25 | 0.03125 | 0.25
2 | CC[C@H](C)[C@H](NC(=O)[C@@H](NC(=O)[C@@H]1C[C@@H](O)CN1C(=O)[C@@H](N)C(C)C)[C@@H](C)CC)C(=O)N[C@@H](Cc1ccc(O)cc1)C(=O)N[C@@H]1C(=O)N[C@@H](CC(N)=O)C(=O)N[C@@H](CCCNC(=N)N)C(=O)N[C@@H](CCCNC(N)=O)C(=O)N[C@@H]([C@@H](C)O)C(=O)N[C@H](CCN)C(=O)N[C@@H](CCCCN)C(=O)N[C@H](C(=O)N[C@@H](CCN)C(=O)N[C@@H](CCCNC(=N)N)C(=O)N[C@@H](Cc2ccc(O)cc2)C(=O)O)CSSC1(C)C [Example 124, Val-Hyp-Ile-Ile-Tyr-Pen-Asn-Arg-Cit-Thr-^DDab-Lys-Cys-Dab-Arg-Tyr] (HELM PEPTIDE1{V.[Hyp].I.I.Y.[Pen].N.R.[Cit].T.[NCC[C@@H](N[*:1])C(=O)[*:2]].K.C.[Dab].R.Y}$PEPTIDE1,PEPTIDE1,6:R3-13:R3$$$V2.0) | <1 | 0.5 | 0.25 | 0.25
3 | CC[C@H](C)[C@@H]1NC(=O)[C@@H](NC(=O)[C@H](Cc2ccc(O)cc2)NC(=O)[C@@H](NC(=O)[C@@H](NC(=O)[C@@H]2C[C@@H](O)CN2C(=O)[C@@H](N)C(C)(C)C)[C@@H](C)CC)[C@@H](C)O)C(C)(C)SSC[C@@H](C(=O)N[C@@H](CCN)C(=O)N[C@@H](CCCN)C(=O)N[C@@H](Cc2ccc(O)cc2)C(=O)O)NC(=O)[C@H](CCCCN)NC(=O)[C@@H](CCN)NC(=O)[C@H]([C@@H](C)O)NC(=O)[C@H](CCN)NC(=O)[C@H](CCCNC(=N)N)NC1=O [Example 95, tBuGly-Hyp-Ile-Thr-Tyr-Pen-Ile-Arg-Dab-Thr-^DDab-Lys-Cys-Dab-Orn-Tyr] (HELM PEPTIDE1{[CC(C)(C)[C@H](N)C(=O)[*:2]].[Hyp].I.T.Y.[Pen].I.R.[Dab].T.[NCC[C@@H](N[*:1])C(=O)[*:2]].K.C.[Dab].[Orn].Y}$PEPTIDE1,PEPTIDE1,6:R3-13:R3$$$V2.0) | <1 | 0.25 | 0.125 | 0.125
4 | CC[C@H](C)[C@H](NC(=O)[C@@H]1C[C@@H](O)CN1C(=O)[C@@H](N)C(C)C)C(=O)N[C@@H](CCN)C(=O)N[C@@H](Cc1ccc(O)cc1)C(=O)N[C@@H]1C(=O)N[C@@H](CC(N)=O)C(=O)N[C@@H](CCCNC(=N)N)C(=O)N[C@@H](CCN)C(=O)N[C@@H]([C@@H](C)O)C(=O)N[C@H](CCN)C(=O)N[C@@H](CCCNC(N)=O)C(=O)N[C@H](C(=O)N[C@@H](CCN)C(=O)N[C@H](C(=O)N[C@@H](Cc2ccc(O)cc2)C(=O)O)[C@@H](C)O)CSSC1(C)C [Example 113, Val-Hyp-Ile-Dab-Tyr-Pen-Asn-Arg-Dab-Thr-^DDab-Cit-Cys-Dab-Thr-Tyr] (HELM PEPTIDE1{V.[Hyp].I.[Dab].Y.[Pen].N.R.[Dab].T.[NCC[C@@H](N[*:1])C(=O)[*:2]].[Cit].C.[Dab].T.Y}$PEPTIDE1,PEPTIDE1,6:R3-13:R3$$$V2.0) | <1 | 0.25 | 0.125 | 0.125
5 | CC[C@H](C)[C@H](NC(=O)[C@@H](NC(=O)[C@@H]1C[C@@H](N)CN1C(=O)[C@@H](N)C(C)C)[C@@H](C)CC)C(=O)N[C@@H](Cc1ccc(O)cc1)C(=O)N[C@@H]1C(=O)N[C@@H](CC(N)=O)C(=O)N[C@@H](CCCNC(=N)N)C(=O)N[C@@H](CCN)C(=O)N[C@@H]([C@@H](C)O)C(=O)N[C@H](CCN)C(=O)N[C@@H](CCCCN)C(=O)N[C@H](C(=O)N[C@@H](CCN)C(=O)N[C@H](C(=O)N[C@@H](Cc2ccc(O)cc2)C(=O)O)[C@@H](C)O)CSSC1(C)C [Example 109, Val-Pro((4R)NH2)-Ile-Ile-Tyr-Pen-Asn-Arg-Dab-Thr-^DDab-Lys-Cys-Dab-Thr-Tyr] (HELM PEPTIDE1{V.[N[C@@H]1C[C@@H](C(=O)[*:2])N([*:1])C1].I.I.Y.[Pen].N.R.[Dab].T.[NCC[C@@H](N[*:1])C(=O)[*:2]].K.C.[Dab].T.Y}$PEPTIDE1,PEPTIDE1,6:R3-13:R3$$$V2.0) | <1 | 0.25 | 0.125 | 0.125
6 | CC[C@H](C)[C@H](NC(=O)[C@@H]1C=CCN1C(=O)[C@@H](N)C(C)C)C(=O)N[C@H](C(=O)N[C@@H](Cc1ccc(O)cc1)C(=O)N[C@@H]1C(=O)N[C@@H](CC(N)=O)C(=O)N[C@@H](CCCNC(=N)N)C(=O)N[C@@H](CCN)C(=O)N[C@@H]([C@@H](C)O)C(=O)N[C@H](CCN)C(=O)N[C@@H](CCCCN)C(=O)N[C@H](C(=O)N[C@@H](CCN)C(=O)N[C@@H](CCCNC(=N)N)C(=O)N[C@@H](Cc2ccc(O)cc2)C(=O)O)CSSC1(C)C)[C@@H](C)O [Example 128, Val-Pro(3,4dehydro)-Ile-Thr-Tyr-Pen-Asn-Arg-Dab-Thr-^DDab-Lys-Cys-Dab-Arg-Tyr] (HELM PEPTIDE1{V.[O=C([C@@H]1C=CCN1[*:1])[*:2]].I.T.Y.[Pen].N.R.[Dab].T.[NCC[C@@H](N[*:1])C(=O)[*:2]].K.C.[Dab].R.Y}$PEPTIDE1,PEPTIDE1,6:R3-13:R3$$$V2.0) | <1 | 0.25 | 0.125 | 0.125
7 | CC[C@H](C)[C@H](NC(=O)[C@@H](NC(=O)[C@@H]1C[C@@H](O)CN1C(=O)[C@@H](N)C(C)C)[C@@H](C)CC)C(=O)N[C@@H](Cc1ccc(O)cc1)C(=O)N[C@@H]1C(=O)N[C@@H](CC(N)=O)C(=O)N[C@@H](CCCNC(=N)N)C(=O)N[C@@H](CCN)C(=O)N[C@@H]([C@@H](C)O)C(=O)N[C@H](CCN)C(=O)N[C@@H](CCCN)C(=O)N[C@H](C(=O)N[C@@H](CCN)C(=O)N[C@@H](CCCNC(=N)N)C(=O)N[C@@H](Cc2ccc(O)cc2)C(=O)O)CSSC1(C)C [Example 78, Val-Hyp-Ile-Ile-Tyr-Pen-Asn-Arg-Dab-Thr-^DDab-Orn-Cys-Dab-Arg-Tyr] (HELM PEPTIDE1{V.[Hyp].I.I.Y.[Pen].N.R.[Dab].T.[NCC[C@@H](N[*:1])C(=O)[*:2]].[Orn].C.[Dab].R.Y}$PEPTIDE1,PEPTIDE1,6:R3-13:R3$$$V2.0) | <1 | 0.125 | 0.0625 | 0.0625
